# Test results reported in US12492173B2, “Herbicidal substituted N-tetrazolyl aryl carboxamides” (Bayer Aktiengesellschaft, priority 2019, dated 2025).
# Key:
# Assay type in all cases: in vivo
# Cyperus esculentus = assay: Pre-emergence herbicidal action, CYPES; parameters: key: % activity: 100 = plants have died, 0 = like control plants; conditions: comparative experiment, 20 g of a.i./ha
# Outline: (§1)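 Seeds were covered with sandy loam soil, then received a pre-emergence surface spray of the WP- or EC-formulated compound. After 3 weeks under good greenhouse growth conditions, damage was scored visually in percent.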
# Lolium rigidum = assay: Pre-emergence herbicidal action, LOLRI; conditions: dosage 320 g/ha, scored visually after 3 weeks vs untreated controls (100% = plants have died)
# Excerpt: 1. Pre-Emergence Herbicidal Action Against Harmful Plants Seeds of monocotyledonous and dicotyledonous weed plants and crop plants are laid out in sandy loam soil in wood-fiber pots and covered with soil. The compounds of the invention, formulated in the form of wettable powders (WP) or as emulsion concentrates (EC), are then applied to the surface of the covering soil in the form of an aqueous suspension or emulsion at a water application rate equating to 600 to 800 l/ha, with addition of 0.2% wetting agent. After the treatment, the pots are placed in a greenhouse and kept under good growth conditions for the trial plants. The damage to the test plants is scored visually after a test period of 3 weeks by comparison with untreated controls (herbicidal activity in percent (%): 100% activity=the plants have died, 0% activity=like control plants). […] The tables below illustrate, in an exemplary manner, the […] herbicidal action of the compounds according to the invention, the herbicidal activity being stated in percent. [table] In the experiments that follow, herbicidal action of numerous inventive compounds and the known compounds that are structurally closest from D1 (WO 2012/028579 A1) and D2 (WO 2018/202535 A1) were compared under the above-specified conditions by the pre-emergence and post-emergence method. The example numbers given in the tables relate to the compounds disclosed in the respective documents. In addition to the compounds disclosed in D1 and D2, the following compounds V-1 to V-14 that are encompassed by D1 or D2 but are not compounds specified therein were used in the comparative experiments: • V-1: 2-(methylsulfanyl)-3-(methylsulfinyl)-N-(1-methyl-1H-tetrazol-5-yl)-4-(trifluoromethyl)benzamide • V-2: 2-(methylsulfanyl)-3-(methylsulfonyl)-N-(1-methyl-1H-tetrazol-5-yl)-4-(trifluoromethyl)benzamide • V-3: 2,3-bis(ethylsulfanyl)-N-(1-methyl-1H-tetrazol-5-yl)-4-(trifluoromethyl)benzamide • V-4: 2-chloro-3-(ethylsulfanyl)-N-(1-methyl-1H-tetrazol-5-yl)-4-(trifluoromethyl)benzamide • V-5: 2-chloro-4-iodo-3-(methylsulfanyl)-N-(1-methyl-1H-tetrazol-5-yl)benzamide • V-6: 2-chloro-4-iodo-3-(methylsulfinyl)-N-(1-methyl-1H-tetrazol-5-yl)benzamide • V-7: 2-chloro-4-iodo-3-(methylsulfonyl)-N-(1-methyl-1H-tetrazol-5-yl)benzamide • V-8: 2-bromo-3-(methylsulfanyl)-N-(1-methyl-1H-tetrazol-5-yl)-4-(trifluoromethyl)benzamide • V-9: 2-bromo-3-(methylsulfinyl)-N-(1-methyl-1H-tetrazol-5-yl)-4-(trifluoromethyl)benzamide • V-10: 2-bromo-3-(methylsulfonyl)-N-(1-methyl-1H-tetrazol-5-yl)-4-(trifluoromethyl)benzamide • V-11: 2-bromo-3-(ethylsulfanyl)-N-(1-methyl-1H-tetrazol-5-yl)-4-(trifluoromethyl)benzamide • V-12: 2-bromo-3-(ethylsulfinyl)-N-(1-methyl-1H-tetrazol-5-yl)-4-(trifluoromethyl)benzamide • V-13: 2-bromo-3-(ethylsulfonyl)-N-(1-methyl-1-1H-tetrazol-5-yl)-4-(trifluoromethyl)benzamide • V-14: 2-cyclopropyl-3-(ethylsulfanyl)-N-(1-methyl-1H-tetrazol-5-yl)-4-(trifluoromethyl)benzamide Herbicidal Pre-Emergence Action: […]
# Alopecurus myosuroides = assay: Pre-emergence herbicidal action, ALOMY; parameters: key: % activity: 100 = plants have died, 0 = like control plants; conditions: comparative experiment, 20 g of a.i./ha
# Outline: as §1
# Hordeum murinum [1] = assay: Post-emergence herbicidal action, HORMU; parameters: key: % herbicidal action: 100 = plants died, 0 = like control; conditions: Dosage 80 g/ha
# Experimental: [table] 2. Post-Emergence Herbicidal Action Against Harmful Plants Seeds of monocotyledonous and dicotyledonous weed and crop plants are laid out in sandy loam soil in wood-fiber pots, covered with soil and cultivated in a greenhouse under good growth conditions. 2 to 3 weeks after sowing, the test plants are treated at the one-leaf stage. The compounds of the invention, formulated in the form of wettable powders (WP) or as emulsion concentrates (EC), are then sprayed onto the green parts of the plants in the form of an aqueous suspension or emulsion at a water application rate equating to 600 to 800 l/ha, with addition of 0.2% wetting agent. After the test plants have been left to stand in the greenhouse under optimal growth conditions for about 3 weeks, the action of the preparations is assessed visually in comparison to untreated controls (herbicidal action in percent (%): 100% activity=the plants have died, 0% activity=like control plants). […] The tables below illustrate, in an exemplary manner, the post-emergence herbicidal action of the compounds according to the invention, the herbicidal activity being stated in percent. In the experiments that follow, herbicidal action of numerous inventive compounds and the known compounds that are structurally closest from D1 (WO 2012/028579 A1) and D2 (WO 2018/202535 A1) were compared under the above-specified conditions by the pre-emergence and post-emergence method. The example numbers given in the tables relate to the compounds disclosed in the respective documents. In addition to the compounds disclosed in D1 and D2, the following compounds V-1 to V-14 that are encompassed by D1 or D2 but are not compounds specified therein were used in the comparative experiments: • V-1: 2-(methylsulfanyl)-3-(methylsulfinyl)-N-(1-methyl-1H-tetrazol-5-yl)-4-(trifluoromethyl)benzamide • V-2: 2-(methylsulfanyl)-3-(methylsulfonyl)-N-(1-methyl-1H-tetrazol-5-yl)-4-(trifluoromethyl)benzamide • V-3: 2,3-bis(ethylsulfanyl)-N-(1-methyl-1H-tetrazol-5-yl)-4-(trifluoromethyl)benzamide • V-4: 2-chloro-3-(ethylsulfanyl)-N-(1-methyl-1H-tetrazol-5-yl)-4-(trifluoromethyl)benzamide • V-5: 2-chloro-4-iodo-3-(methylsulfanyl)-N-(1-methyl-1H-tetrazol-5-yl)benzamide • V-6: 2-chloro-4-iodo-3-(methylsulfinyl)-N-(1-methyl-1H-tetrazol-5-yl)benzamide • V-7: 2-chloro-4-iodo-3-(methylsulfonyl)-N-(1-methyl-1H-tetrazol-5-yl)benzamide • V-8: 2-bromo-3-(methylsulfanyl)-N-(1-methyl-1H-tetrazol-5-yl)-4-(trifluoromethyl)benzamide • V-9: 2-bromo-3-(methylsulfinyl)-N-(1-methyl-1H-tetrazol-5-yl)-4-(trifluoromethyl)benzamide • V-10: 2-bromo-3-(methylsulfonyl)-N-(1-methyl-1H-tetrazol-5-yl)-4-(trifluoromethyl)benzamide • V-11: 2-bromo-3-(ethylsulfanyl)-N-(1-methyl-1H-tetrazol-5-yl)-4-(trifluoromethyl)benzamide • V-12: 2-bromo-3-(ethylsulfinyl)-N-(1-methyl-1H-tetrazol-5-yl)-4-(trifluoromethyl)benzamide • V-13: 2-bromo-3-(ethylsulfonyl)-N-(1-methyl-1-1H-tetrazol-5-yl)-4-(trifluoromethyl)benzamide • V-14: 2-cyclopropyl-3-(ethylsulfanyl)-N-(1-methyl-1H-tetrazol-5-yl)-4-(trifluoromethyl)benzamide Herbicidal Pre-Emergence Action: […]
# Hordeum murinum [2] = assay: Pre-emergence herbicidal action, HORMU; conditions: dosage 320 g/ha, scored visually after 3 weeks vs untreated controls (100% = plants have died)
# Outline: as §1
smiles,measurement,setting,value
Cn1nnnc1NC(=O)c1ccc(C(F)(F)F)c(C[S+](C)[O-])c1Cl (racemic) [Example 1-297],Herbicidal action against CYPES,Cyperus esculentus,100
COc1c(C(=O)Nc2nnnn2C)ccc(C(F)(F)F)c1CSC [Example 1-134],Herbicidal action against CYPES,Cyperus esculentus,50
Cn1nnnc1NC(=O)c1ccc(C(F)(F)F)c(CS(C)(=O)=O)c1Cl [Example 1-298],Herbicidal action against CYPES,Cyperus esculentus,100
C=CCSCc1c(C(F)(F)F)ccc(C(=O)Nc2nnnn2C)c1Cl [Example 1-308],herbicidal activity LOLRI,Lolium rigidum,90%
CSCc1c(C(F)(F)F)ccc(C(=O)Nc2nnnn2C)c1Br [Example 1-380],Herbicidal action against CYPES,Cyperus esculentus,60
Cn1nnnc1NC(=O)c1ccc(C(F)(F)F)c(C[S+](C)[O-])c1Br (centres unmarked) [Example 1-381],Herbicidal action against ALOMY,Alopecurus myosuroides,50
"Cn1nnnc1NC(=O)c1ccc(C(F)(F)F)c(CS(C)(=O)=O)c1Br [Example 1-382, 2-bromo-3-[(methylsulfonyl)methyl]-N-(1-methyl-1H-tetrazol-5-yl)-4-(trifluoromethyl)benzamide]",Herbicidal action against ALOMY,Alopecurus myosuroides,30
CCn1nnnc1NC(=O)c1ccc(C(F)(F)F)c(CS(C)(=O)=O)c1SC [Example 2-163],herbicidal action HORMU,Hordeum murinum [1],80
CCCn1nnnc1NC(=O)c1ccc(C(F)F)c(C[S+]([O-])CC)c1Cl (centres unmarked) [Example 3-324],herbicidal activity HORMU,Hordeum murinum [2],100%
same,herbicidal activity LOLRI,Lolium rigidum,100%
same,herbicidal action HORMU,Hordeum murinum [1],80
